Measurements as given in patent US11040976B2, “Substrate selective inhibitors of insulin-degrading enzyme (IDE) and uses thereof” (President and Fellows of Harvard College, priority 2015, dated 2021).

Legend:
[1] = target: T1, IDE, substrate amylin (fp) peptide (Homo sapiens, UniProt P14735); experiment: IDE concentration dependence profile with fluorogenic amylin analog; format: biochemical; details: FIGS. 11B and 11C
T1 sequence (P14735 1-1019): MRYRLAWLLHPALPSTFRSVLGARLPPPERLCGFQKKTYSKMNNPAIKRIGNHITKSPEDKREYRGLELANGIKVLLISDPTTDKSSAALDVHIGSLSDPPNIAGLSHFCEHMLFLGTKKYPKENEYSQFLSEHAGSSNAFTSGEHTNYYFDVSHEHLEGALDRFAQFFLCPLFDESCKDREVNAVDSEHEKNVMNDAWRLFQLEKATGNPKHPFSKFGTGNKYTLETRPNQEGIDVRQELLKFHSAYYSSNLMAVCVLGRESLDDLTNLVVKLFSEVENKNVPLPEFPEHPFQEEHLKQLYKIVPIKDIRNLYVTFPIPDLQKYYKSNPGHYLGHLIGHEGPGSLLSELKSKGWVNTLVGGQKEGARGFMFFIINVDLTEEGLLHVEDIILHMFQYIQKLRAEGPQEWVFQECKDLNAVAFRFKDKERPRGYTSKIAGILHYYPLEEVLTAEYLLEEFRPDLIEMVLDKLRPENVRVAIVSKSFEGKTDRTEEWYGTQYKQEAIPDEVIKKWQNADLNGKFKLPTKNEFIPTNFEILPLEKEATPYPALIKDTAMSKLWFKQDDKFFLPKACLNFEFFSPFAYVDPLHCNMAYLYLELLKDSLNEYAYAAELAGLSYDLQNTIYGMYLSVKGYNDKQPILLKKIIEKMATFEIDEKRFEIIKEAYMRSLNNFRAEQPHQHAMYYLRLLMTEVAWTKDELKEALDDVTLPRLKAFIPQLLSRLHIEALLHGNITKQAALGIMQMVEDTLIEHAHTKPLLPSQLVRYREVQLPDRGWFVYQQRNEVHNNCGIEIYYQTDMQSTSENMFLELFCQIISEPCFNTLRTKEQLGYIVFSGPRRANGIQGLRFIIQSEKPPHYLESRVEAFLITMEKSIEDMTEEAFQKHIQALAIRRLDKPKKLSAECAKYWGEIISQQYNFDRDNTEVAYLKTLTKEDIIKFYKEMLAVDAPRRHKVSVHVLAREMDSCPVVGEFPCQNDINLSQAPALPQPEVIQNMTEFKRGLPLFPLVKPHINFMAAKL
Method: In order to determine the behavior of the inhibitors with respect to amylin, a concentration dependence profile was measured for IDE in the presence of a specified concentration of inhibitor and a fluorogenic amylin analog. The amylin (fp) peptide sequence was KCNTATCATXRLANFLVHSSNNZGAILSSTNVGSNTY-NH2 (SEQ ID NO: 8). The residue marked as X is Lys-γN-anthrinilamide, and the residue marked as Z is 3-nitro-Tyr.

[2] = system: human IDE Val360Gln and Tyr314Phe; experiment: Activity assay of mutant human IDE variants Val360Gln and Tyr314Phe with IDE inhibitors; format: biochemical
Source text: N-His6-tagged human IDE42-1019 construct was introduced in the expression plasmid pTrcHis-A (Invitrogen) using primers for uracil-specific excision reactions (USER) by Taq (NEB) and Pfu polymerases (PfuTurbo CX®, Agilent), as described in more detail in Maianti et al. (Nature (2014), 511, 94-98), which is incorporated by reference herein. The IDE gene was amplified with the primers 5′-[…]-dU-[…] (SEQ ID NO: 26) and 5′-[…] G-dU-[…] (SEQ ID NO: 27) (underlined sequences represent overhangs, and italics highlight the PCR priming sequence). Similarly, the pTrcHis-A vector was amplified for USER cloning with the primers 5′-[…]-dU-[…] (SEQ ID NO: 28) and 5′-[…]-dU-[…] (SEQ ID NO: 29). Mutant IDE constructs were generated by amplifying the full vector construct with USER cloning primers introducing a mutant overhang (see Table E6).
Recombinant His6-tagged proteins were purified by Ni(II)-affinity chromatography (IMAC sepharose beads, GE Healthcare®) according to the manufacturer's instructions. The cell pellets were re-suspended in pH 8.0 buffer containing 50 mM phosphate, 300 mM NaCl, 10 mM imidazole, 1% Triton X-100 and 1 mM tris(2-carboxyethyl)phosphine hydrochloride (TCEP), and were lysed by probe sonication for 4 minutes at <4° C., followed by clearing of cell debris by centrifugation at 10,000 g for 25 minutes at 4° C. […]

Cc1cccc(-c2ccc([C@@H]3[C@@H](CO)N4CCCCN(S(=O)(=O)c5ccccc5C)C[C@@H]34)cc2)c1 [compound 297]
selectivity for inhibiting degradation of amylin over glucagon ([1]; amylin (fp) curve compared with HTRF glucagon curve): selectivity for inhibiting degradation of amylin over degradation of glucagon | selectivity for inhibiting degradation of insulin over amylin and glucagon ([1]; amylin (fp) curve compared with HTRF insulin and glucagon curves): selectivity for inhibiting degradation of insulin over degradation of amylin and glucagon | effect of variants Val360Gln and Tyr314Phe on potency [2]: minor impacts on potency
